These results are taken from patent US8871753B2, “Macrocyclic compounds and their use as kinase inhibitors” (Incyte Corporation, priority 2008, dated 2014).

What all share (assay type): biochemical
Assay [1] concerns the target T1, Recombinant Human Anaplastic Lymphoma Kinase (Homo sapiens, UniProt Q9UM73).
T1 construct: purchased Invitrogen, Carlsbad, Calif
Put plainly: ALK HTRF kinase assay. In short, it runs like this: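 Kinase activity of the recombinant human protein is measured on a biotinylated peptide, with a Eu-W1024 anti-phosphotyrosine antibody and streptavidin-allophycocyanin generating the homogeneous time-resolved fluorescence signal. Inhibition curves are fitted to yield IC50.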
A general note: In TR-FRET formats the signal depends on donor and acceptor labels being close together.

The target of assay [2] is T2, human JAK2 (a.a. 828-1132) (Homo sapiens, UniProt O60674).
T2 construct: JAK2 (a.a. 828-1132); His tag (N); made in house; host or cells: insect cells (baculovirus)
Put plainly: In vitro JAK kinase assay (HTRF, phosphorylation of a biotinylated peptide), JAK2. In short, it runs like this:
(§1)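 Kinase activity was measured as phosphorylation of a biotinylated peptide, with ATP at 90 μM for JAK1, 30 μM for JAK2 and 3 μM for JAK3. Reactions ran 1 hr at room temperature, were stopped with EDTA plus SA-APC and Eu-Py20, and were read by HTRF after 40 minutes of antibody binding.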

Assay [3] has as its target T3, human JAK3 (a.a. 781-1124) (Homo sapiens, UniProt P52333).
T3 construct: JAK3 (a.a. 781-1124); His tag (N); made in house; host or cells: insect cells (baculovirus)
Put plainly: In vitro JAK kinase assay (HTRF, phosphorylation of a biotinylated peptide), JAK3. In short, it runs like this: as §1

The next assay addresses TYK2 (Homo sapiens, UniProt P29597). Put plainly: TYK2 kinase inhibition (Table A1).
Assay [4] addresses T4, human JAK1 (a.a. 837-1142) (Homo sapiens, UniProt P23458).
T4 construct: human JAK1 (a.a. 837-1142); His tag (N); made in house; host or cells: insect cells (baculovirus)
Put plainly: In vitro JAK kinase assay (HTRF, phosphorylation of a biotinylated peptide), JAK1. The conditions noted are these: read-out: JAK1 IC50. A digest of the protocol: as §1

[5] abbreviates: compound at 500 nM or 1 mM, 90 μM ATP.
[6] abbreviates: method AA1 (30 μM ATP) or AA2 (1000 μM ATP), not stated per value.
The mark [7] stands for this setting: method AA1 (3 μM ATP) or AA2 (1000 μM ATP), not stated per value.
Where [8] appears, read: method AA1 (90 μM ATP) or AA2 (1000 μM ATP), not stated per value.
[9] abbreviates: percentage inhibition of the example compound at a concentration of 500 nM or 1 mM (not specified which).
[10] abbreviates: Table B1, cells without percent sign.
Setting [11] is: compound at a concentration of 500 nM or 1 mM (not specified), cells shown as percentage.

Counter-ions that a name gives are not always drawn. Like-named read-outs stand apart in the source and are kept apart here.

Chain of TYK2 (P29597 whole entry): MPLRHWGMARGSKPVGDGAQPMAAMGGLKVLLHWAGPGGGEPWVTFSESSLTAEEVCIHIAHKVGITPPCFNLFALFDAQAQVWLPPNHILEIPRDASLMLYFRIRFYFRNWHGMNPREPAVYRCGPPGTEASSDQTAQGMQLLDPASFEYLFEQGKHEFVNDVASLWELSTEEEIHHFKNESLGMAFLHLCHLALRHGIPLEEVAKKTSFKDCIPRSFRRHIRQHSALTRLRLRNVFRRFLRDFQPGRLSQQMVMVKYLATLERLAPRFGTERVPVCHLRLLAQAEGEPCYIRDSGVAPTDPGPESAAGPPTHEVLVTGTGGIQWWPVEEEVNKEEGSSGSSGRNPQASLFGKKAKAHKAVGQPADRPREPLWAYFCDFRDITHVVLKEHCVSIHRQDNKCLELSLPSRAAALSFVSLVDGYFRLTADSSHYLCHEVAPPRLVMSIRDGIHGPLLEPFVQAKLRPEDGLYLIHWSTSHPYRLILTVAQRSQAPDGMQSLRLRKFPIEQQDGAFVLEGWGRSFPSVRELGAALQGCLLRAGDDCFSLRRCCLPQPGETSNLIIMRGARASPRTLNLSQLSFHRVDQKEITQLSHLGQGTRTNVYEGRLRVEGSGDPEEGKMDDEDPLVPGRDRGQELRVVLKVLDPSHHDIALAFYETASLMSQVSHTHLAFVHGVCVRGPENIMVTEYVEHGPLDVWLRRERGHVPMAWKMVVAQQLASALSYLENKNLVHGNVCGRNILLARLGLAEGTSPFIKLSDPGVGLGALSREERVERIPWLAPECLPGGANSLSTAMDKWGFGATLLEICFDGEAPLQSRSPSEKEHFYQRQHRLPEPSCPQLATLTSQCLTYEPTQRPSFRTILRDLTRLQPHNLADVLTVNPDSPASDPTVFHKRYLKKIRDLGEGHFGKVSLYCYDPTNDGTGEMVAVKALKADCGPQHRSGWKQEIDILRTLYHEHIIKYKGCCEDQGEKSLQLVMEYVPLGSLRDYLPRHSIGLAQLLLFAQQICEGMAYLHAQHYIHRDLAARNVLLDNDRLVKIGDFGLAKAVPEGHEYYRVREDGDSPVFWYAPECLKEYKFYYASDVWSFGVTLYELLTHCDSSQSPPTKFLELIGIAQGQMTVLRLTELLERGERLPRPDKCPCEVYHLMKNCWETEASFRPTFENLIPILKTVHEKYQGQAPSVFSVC
T4 sequence (P23458 849-1154): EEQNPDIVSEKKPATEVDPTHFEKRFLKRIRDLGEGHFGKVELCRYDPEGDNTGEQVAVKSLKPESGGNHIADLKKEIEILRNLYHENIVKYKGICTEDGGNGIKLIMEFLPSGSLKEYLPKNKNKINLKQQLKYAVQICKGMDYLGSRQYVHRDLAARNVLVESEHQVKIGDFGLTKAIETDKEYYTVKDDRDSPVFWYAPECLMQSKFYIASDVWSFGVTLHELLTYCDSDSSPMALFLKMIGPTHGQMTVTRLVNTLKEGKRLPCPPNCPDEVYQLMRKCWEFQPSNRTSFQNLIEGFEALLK
T1 sequence (Q9UM73 19-1620): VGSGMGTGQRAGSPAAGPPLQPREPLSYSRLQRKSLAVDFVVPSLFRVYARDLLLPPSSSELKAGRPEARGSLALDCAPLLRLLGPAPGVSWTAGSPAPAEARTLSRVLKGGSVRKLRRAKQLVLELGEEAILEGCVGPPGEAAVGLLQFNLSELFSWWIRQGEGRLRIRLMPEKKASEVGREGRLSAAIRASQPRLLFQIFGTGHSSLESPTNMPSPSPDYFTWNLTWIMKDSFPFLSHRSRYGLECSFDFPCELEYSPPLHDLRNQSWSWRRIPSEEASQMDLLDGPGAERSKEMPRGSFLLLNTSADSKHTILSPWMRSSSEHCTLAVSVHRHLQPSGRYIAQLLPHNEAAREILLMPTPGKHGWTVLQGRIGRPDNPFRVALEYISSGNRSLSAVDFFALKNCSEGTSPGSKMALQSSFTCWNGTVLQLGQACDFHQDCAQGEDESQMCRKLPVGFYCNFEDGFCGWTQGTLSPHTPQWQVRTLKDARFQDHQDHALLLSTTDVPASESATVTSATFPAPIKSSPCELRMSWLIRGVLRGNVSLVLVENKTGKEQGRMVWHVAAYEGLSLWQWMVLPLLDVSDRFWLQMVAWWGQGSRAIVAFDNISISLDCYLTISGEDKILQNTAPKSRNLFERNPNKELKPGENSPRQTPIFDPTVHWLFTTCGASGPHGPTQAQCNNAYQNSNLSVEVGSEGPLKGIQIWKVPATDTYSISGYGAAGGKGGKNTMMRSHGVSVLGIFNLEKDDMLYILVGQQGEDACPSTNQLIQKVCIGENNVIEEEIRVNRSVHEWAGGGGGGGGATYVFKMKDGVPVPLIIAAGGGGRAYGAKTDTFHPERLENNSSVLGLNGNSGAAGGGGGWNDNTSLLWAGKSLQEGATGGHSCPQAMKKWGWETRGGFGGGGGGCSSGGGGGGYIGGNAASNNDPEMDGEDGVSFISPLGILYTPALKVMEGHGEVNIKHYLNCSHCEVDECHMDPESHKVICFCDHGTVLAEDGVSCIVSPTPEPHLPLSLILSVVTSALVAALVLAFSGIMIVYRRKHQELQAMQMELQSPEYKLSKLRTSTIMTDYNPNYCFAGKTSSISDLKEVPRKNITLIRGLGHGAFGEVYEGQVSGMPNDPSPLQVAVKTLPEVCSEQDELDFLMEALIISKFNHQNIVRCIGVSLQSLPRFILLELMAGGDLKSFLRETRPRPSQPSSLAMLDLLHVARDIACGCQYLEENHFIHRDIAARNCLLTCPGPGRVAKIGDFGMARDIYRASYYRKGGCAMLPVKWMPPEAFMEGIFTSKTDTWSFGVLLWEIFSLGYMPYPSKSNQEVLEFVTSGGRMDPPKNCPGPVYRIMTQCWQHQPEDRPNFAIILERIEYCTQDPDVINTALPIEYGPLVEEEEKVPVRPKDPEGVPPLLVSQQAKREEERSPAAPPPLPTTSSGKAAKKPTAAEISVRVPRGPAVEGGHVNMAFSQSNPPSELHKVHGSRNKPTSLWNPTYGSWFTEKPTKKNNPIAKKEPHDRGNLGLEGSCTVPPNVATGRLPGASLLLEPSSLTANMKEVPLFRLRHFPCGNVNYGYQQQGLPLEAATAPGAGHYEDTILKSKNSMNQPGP
T3 sequence (P52333 781-1124): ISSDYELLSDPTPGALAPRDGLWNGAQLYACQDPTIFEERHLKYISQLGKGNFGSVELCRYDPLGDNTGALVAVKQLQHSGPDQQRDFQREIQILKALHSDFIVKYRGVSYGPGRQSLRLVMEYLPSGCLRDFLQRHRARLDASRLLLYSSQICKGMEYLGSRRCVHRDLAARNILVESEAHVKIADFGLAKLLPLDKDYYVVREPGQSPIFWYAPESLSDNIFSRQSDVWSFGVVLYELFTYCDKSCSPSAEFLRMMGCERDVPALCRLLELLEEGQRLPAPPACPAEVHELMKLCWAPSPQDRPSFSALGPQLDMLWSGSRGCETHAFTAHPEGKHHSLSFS
T2 sequence (O60674 828-1132): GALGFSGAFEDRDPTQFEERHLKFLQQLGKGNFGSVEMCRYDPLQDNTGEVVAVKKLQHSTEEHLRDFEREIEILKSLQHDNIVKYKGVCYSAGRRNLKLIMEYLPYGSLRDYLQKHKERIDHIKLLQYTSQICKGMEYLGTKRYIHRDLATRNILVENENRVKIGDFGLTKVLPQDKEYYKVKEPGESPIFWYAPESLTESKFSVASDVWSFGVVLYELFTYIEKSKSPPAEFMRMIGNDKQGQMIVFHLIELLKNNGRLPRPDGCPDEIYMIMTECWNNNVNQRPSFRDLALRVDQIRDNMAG

Turning to `O=S1(=O)CCOc2cccc(c2)Nc2ncc(Cl)c(n2)Nc2cccc1c2` [Example D14, 6-Chloro-17-oxa-14-thia-2,4,8,24-tetraazatetracyclo[16.3.1.1(3,7).1(9,13)]tetracosa-1(22),3(24),4,6,9(23),10,12,18,20-nonaene 14,14-dioxide trifluoroacetate], the IC50 was determined as 732 nM in assay [1] (Table D1, 90 μM ATP); 2.2 nM in assay [2] (Table D1); 11 nM in assay [3] (Table D1); 5 nM against TYK2 (Table D1); 2.2 nM in assay [4] (Table D1).

For the molecule `O=C(CC1CCN(C(=O)c2ccon2)CC1)Nc1ccc2cc1CCc1cncc(c1)Nc1ncc(Cl)c(n1)N2` [Example A135, N-[6-Chloro-2,4,8,18,22-pentaazatetracyclo[14.3.1.1(3,7).1(9,13)]docosa-1(20),3(22),4,6,9(21),10,12,16,18-nonaen-12-yl]-2-[1-(isoxazol-3-ylcarbonyl)piperidin-4-yl]acetamide bis(trifluoroacetate)], in assay [1] (setting [5]), the “ALK % of inhibition at a concentration of 500 nM or 1 mM” value (shortened to “ALK % of inhibition”) was determined as 30%. Further, the IC50 stood at 2.3 nM in assay [2] (setting [6]), 79 nM in assay [3] (setting [7]), 0.9 nM on TYK2 and 0.4 nM in assay [4] (setting [8]).

On to `O=C(Nc1ccc2cc1CCc1cncc(c1)Nc1ncc(Cl)c(n1)N2)N1CCC(c2cnccn2)C1` (stereo not drawn) [Example B313, N-[6-Chloro-2,4,8,18,22-pentaazatetracyclo[14.3.1.1(3,7).1(9,13)]docosa-1(20),3(22),4,6,9(21),10,12,16,18-nonaen-12-yl]-3-pyrazin-2-ylpyrrolidine-1-carboxamide tetrakis(trifluoroacetate)], for which the “ALK % of inhibition” value in assay [1] (setting [9]) is on record as 20%. Also, the IC50 in assay [2] (Table B1) is 371 nM; in assay [3] (Table B1), > 400 nM; at TYK2 (Table B1), > 400 nM; in assay [4] (Table B1) it was 48 nM.

With `NS(=O)(=O)N1CCC(CC(=O)Nc2ccc3cc2CCc2cncc(c2)Nc2ncc(Cl)c(n2)N3)CC1` [Example A78, 2-[1-(Aminosulfonyl)piperidin-4-yl]-N-[6-chloro-2,4,8,18,22pentaazatetracyclo[14.3.1.1(3,7).1(9,13)]docosa-1(20),3(22),4,6,9(21),10,12,16,18-nonaen-12-yl]acetamide bis(trifluoroacetate)], in assay [1] (setting [5]), the “ALK % of inhibition” value is recorded as 39%. Also, the concentration for half-maximal inhibition (IC50) turned out to be 0.3 nM in assay [2] (setting [6]), 12 nM in assay [3] (setting [7]), 0.3 nM against TYK2 and 0.4 nM in assay [4] (setting [8]).

For the molecule `CCCS(=O)(=O)NCCNC(=O)Nc1ccc2cc1CCc1cccc(c1)Nc1ncc(Cl)c(n1)N2` [Example B326, N-{2-[({[6-Chloro-2,4,8,22-tetraazatetracyclo[14.3.1.1(3,7).1(9,13)]docosa-1(20),3(22),4,6,9(21),10,12,16,18-nonaen-12-yl]amino}carbonyl)amino]ethyl}propane-1-sulfonamide trifluoroacetate], the “ALK % of inhibition” value in assay [1] (setting [9]) was 19%. The 50% inhibitory concentration (IC50) in assay [2] (Table B1) was determined as 3.4 nM; in assay [3] (Table B1) it was 7.8 nM; against TYK2 (Table B1) it was 6.9 nM; in assay [4] (Table B1) it was 3 nM.

On to `O=C(Nc1ccc2cc1CCc1cccc(c1)Nc1ncc(Cl)c(n1)N2)c1ccccc1F` [Example B38, N-[6-Chloro-2,4,8,22-tetraazatetracyclo[14.3.1.1(3,7).1(9,13)]docosa-1(20), 3(22),4,6,9(21),10,12,16,18-nonaen-12-yl]-2-fluorobenzamide trifluoroacetate], for which the 50% inhibitory concentration (IC50) in assay [1] (setting [10]) stood at 210 nM; in assay [2] (Table B1) it was 0.26 nM; in assay [3] (Table B1) it was 4 nM; against TYK2 (Table B1), 0.97 nM; in assay [4] (Table B1), 1.4 nM.

Turning to `Cn1cncc1C(=O)Nc1cc2cc(c1)Nc1nc(ncc1Cl)Nc1cccc(c1)CC2` [Example B208, N-[6-Chloro-2,4,8,22-tetraazatetracyclo[14.3.1.1(3,7).1(9,13)]docosa-1(20),3(22),4,6,9(21),10,12,16,18-nonaen-11-yl]-1-methyl-1H-imidazole-5-carboxamide trifluoroacetate], the IC50 in assay [1] (setting [10]) is > 1000 nM; in assay [2] (Table B1), 57 nM; in assay [3] (Table B1) it was 84 nM; on TYK2 (Table B1), 150 nM; in assay [4] (Table B1) it was 209 nM.

Regarding `CC(=O)Nc1ccc(S(=O)(=O)Nc2ccc3cc2CCc2cccc(c2)Nc2ncc(Cl)c(n2)N3)cc1` [Example B161, N-[4-({[6-Chloro-2,4,8,22-tetraazatetracyclo[14.3.1.1(3,7).1(9,13)]docosa-1(20),3(22),4,6,9(21),10,12,16,18-nonaen-12-yl]amino}sulfonyl)phenyl]acetamide trifluoroacetate], the “ALK % of inhibition” value in assay [1] (setting [11]) was 58%. Further, the 50% inhibitory concentration (IC50) in assay [2] (Table B1) was determined as 1.1 nM; in assay [3] (Table B1), 8.5 nM; against TYK2 (Table B1), 2.6 nM; in assay [4] (Table B1) it was 1.6 nM.

Consider `CS(=O)(=O)Nc1ccc2cc1CCc1cccc(c1)Nc1ncc(Cl)c(n1)N2` [Example B140, N-[6-Chloro-2,4,8,22-tetraazatetracyclo[14.3.1.1(3,7).1(9,13)]docosa-1(20), 3(22),4,6,9(21),10,12,16,18-nonaen-12-yl]methanesulfonamide trifluoroacetate], for which the IC50 in assay [1] (setting [10]) is 150 nM; in assay [2] (Table B1) it was 0.2 nM; in assay [3] (Table B1) it was 1.3 nM; against TYK2 (Table B1), 0.89 nM; in assay [4] (Table B1), 0.51 nM.

In the case of `O=C(Nc1ccccc1Cl)c1cc2cc(c1)Nc1nc(ncc1Cl)Nc1cccc(c1)CC2` [Example B14, 6-Chloro-N-(2-chlorophenyl)-2,4,8,22-tetraazatetracyclo[14.3.1.1(3,7).1(9,13)]docosa-1(20),3(22),4,6,9(21),10,12,16,18-nonaene-11-carboxamide trifluoroacetate], the IC50 was > 1000 nM in assay [1] (setting [10]); 119 nM in assay [2] (Table B1); 314 nM in assay [3] (Table B1); > 1000 nM against TYK2 (Table B1); 232 nM in assay [4] (Table B1).

Turning to `Cc1noc(C)c1C(=O)Nc1ccc2cc1CCc1cccc(c1)Nc1ncc(Cl)c(n1)N2` [Example B40, N-[6-Chloro-2,4,8,22-tetraazatetracyclo[14.3.1.1(3,7).1(9,13)]docosa-1(20), 3(22),4,6,9(21),10,12,16,18-nonaen-12-yl]-3,5-dimethylisoxazole-4-carboxamide trifluoroacetate], the IC50 was 430 nM in assay [1] (setting [10]); 0.55 nM in assay [2] (Table B1); 3.6 nM in assay [3] (Table B1); 2.1 nM against TYK2 (Table B1); 1.4 nM in assay [4] (Table B1).

With `O=C(Nc1ccc2cc1CCc1cccc(c1)Nc1ncc(Cl)c(n1)N2)C1CCN(C(=O)c2ccco2)CC1` [Example A32, N-[6-Chloro-2,4,8,22-tetraazatetracyclo[14.3.1.1(3,7).1(9,13)]docosa-1(20), 3(22),4,6,9(21),10,12,16,18-nonaen-12-yl]-1-(2-furoyl)piperidine-4-carboxamide trifluoroacetate], the “ALK % of inhibition” value in assay [1] (setting [5]) is on record as 30%. The half-maximal inhibitory concentration (IC50) is 29 nM in assay [2] (setting [6]), 35 nM in assay [3] (setting [7]), 66 nM at TYK2 and 30 nM in assay [4] (setting [8]).

Take `CC(C)(C)OC(=O)N1CCN(Cc2ccc3cc2CCc2cccc(c2)Nc2ncc(Cl)c(n2)N3)CC1` [Example B221, tert-Butyl 4-{[6-chloro-2,4,8,22-tetraazatetracyclo[14.3.1.1(3,7).1(9,13)]docosa-1(20),3(22),4,6,9(21),10,12,16,18-nonaen-12-yl]methyl}piperazine-1-carboxylate bis(trifluoroacetate)]: in assay [1] (setting [11]), the “ALK % of inhibition” value was 8.1%. The IC50 in assay [2] (Table B1) is 19 nM; in assay [3] (Table B1) it was 59 nM; at TYK2 (Table B1) it was 43 nM; in assay [4] (Table B1), 12 nM.

In the case of `O=C1Cc2cccc(c2)Nc2nc(ncc2Cl)Nc2cccc(c2)N1` [Example C11, 6-Chloro-2,4,8,16,23-pentaazatetracyclo[15.3.1.1(3,7).1(9,13)]tricosa-1(21),3(23),4,6,9(22),10,12,17,19-nonaen-15-one trifluoroacetate], the IC50 in assay [1] was > 10000 nM; in assay [2], > 1000 nM; in assay [3] it was > 1000 nM; against TYK2, > 1000 nM; in assay [4] it was > 1000 nM.

Consider `NS(=O)(=O)c1cc2cc(c1)Nc1nc(ncc1Br)Nc1cccc(c1)CC2` [Example B18, 6-Bromo-2,4,8,22-tetraazatetracyclo[14.3.1.1(3,7).1(9,13)]docosa-1(20),3(22),4,6,9(21),10,12,16,18-nonaene-11-sulfonamide trifluoroacetate], for which the IC50 in assay [1] (setting [10]) was > 1000 nM; in assay [2] (Table B1), 23 nM; in assay [3] (Table B1), 64 nM; on TYK2 (Table B1), 178 nM; in assay [4] (Table B1), 107 nM.

The IC50 is the midpoint of a concentration-inhibition curve.
